What was measured:
[1] = target: T1, Protein arginine N-methyltransferase 1 (Homo sapiens, UniProt Q99873); test: Inhibition of GST-fused human recombinant PRMT1 at 100 uM after 90 mins by SDS-PAGE based scintillation counting
Target sequence in this assay (Q99873 whole entry, looked up, the tested form may be a part): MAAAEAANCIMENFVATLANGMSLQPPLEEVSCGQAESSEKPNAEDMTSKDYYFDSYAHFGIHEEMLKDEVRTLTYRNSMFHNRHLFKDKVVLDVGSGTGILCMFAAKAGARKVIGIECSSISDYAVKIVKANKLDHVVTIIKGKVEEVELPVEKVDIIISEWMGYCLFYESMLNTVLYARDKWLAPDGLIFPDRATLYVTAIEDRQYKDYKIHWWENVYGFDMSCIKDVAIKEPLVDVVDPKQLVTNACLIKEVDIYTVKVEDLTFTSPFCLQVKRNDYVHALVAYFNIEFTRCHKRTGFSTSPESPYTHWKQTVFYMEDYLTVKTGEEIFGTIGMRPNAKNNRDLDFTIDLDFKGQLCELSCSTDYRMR

[2] = target: T2, Histone-lysine N-methyltransferase SETD7 (Homo sapiens) (UniProt Q8WTS6); test: Inhibition of GST-fused human recombinant SET7 at 100 uM after 90 mins by SDS-PAGE based scintillation counting
T2 sequence (whole entry): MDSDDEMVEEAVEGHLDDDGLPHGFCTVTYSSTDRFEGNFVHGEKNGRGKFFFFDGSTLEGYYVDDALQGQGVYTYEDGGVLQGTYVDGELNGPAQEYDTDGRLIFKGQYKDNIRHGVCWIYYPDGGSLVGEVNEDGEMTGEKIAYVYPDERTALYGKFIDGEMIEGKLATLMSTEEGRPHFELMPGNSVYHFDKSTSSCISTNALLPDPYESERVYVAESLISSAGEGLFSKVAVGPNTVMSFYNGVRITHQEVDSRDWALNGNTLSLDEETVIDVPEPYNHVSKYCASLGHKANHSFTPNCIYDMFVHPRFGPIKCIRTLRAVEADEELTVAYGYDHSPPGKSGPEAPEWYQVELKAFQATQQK

[3] = target: T1, Protein arginine N-methyltransferase 1; test: Inhibition of GST-fused human recombinant PRMT1 after 90 mins by SDS-PAGE based scintillation counting
Target sequence in this assay (Q99873 whole entry, the tested form may be a part): as the sequence (Q99873 whole entry, looked up, the tested form may be a part) above

[4] = target: T3, Histone-lysine N-methyltransferase SETD7 (Homo sapiens, UniProt Q8WTS6); test: Inhibition of GST-fused human recombinant SET7 after 90 mins by SDS-PAGE based scintillation counting
T3 sequence (Q8WTS6 whole entry): T2 sequence (whole entry)

| inhibition [1] [%] | inhibition [2] [%] | IC50 [3] [nM] | Structure (SMILES) | IC50 [4] [nM] |
| --- | --- | --- | --- | --- |
| > 50 | > 50 |  | N=C(N)NCCn1cc(CN(CC[C@H](N)C(=O)O)C[C@H]2O[C@@H](n3cnc4c(N)ncnc43)[C@H](O)[C@@H]2O)nn1 |  |
|  | 49 | 2900 | N=C(N)NCCCCN(CC[C@H](N)C(=O)O)C[C@H]1O[C@@H](n2cnc3c(N)ncnc32)[C@H](O)[C@@H]1O |  |
|  | 55 |  | N=C(N)NCCCCCN(CC[C@H](N)C(=O)O)C[C@H]1O[C@@H](n2cnc3c(N)ncnc32)[C@H](O)[C@@H]1O |  |
|  |  |  | Nc1ncnc2c1ncn2[C@@H]1O[C@H](C[C@@H](N)CC[C@H](N)C(=O)O)[C@@H](O)[C@H]1O [SINEFUNGIN] | 2500 |
| 77 | 63 |  | C#CCN(CC[C@H](NC(=O)OC(C)(C)C)C(=O)OC(C)(C)C)C[C@H]1O[C@@H](n2cnc3c(N)ncnc32)[C@@H]2OC(C)(C)O[C@@H]21 |  |
| 50 | 75 |  | C#CCN(CC[C@H](N)C(=O)O)C[C@H]1O[C@@H](n2cnc3c(N)ncnc32)[C@H](O)[C@@H]1O |  |
|  | 56.5 | 6200 | N=C(N)NCCCN(CC[C@H](N)C(=O)O)C[C@H]1O[C@@H](n2cnc3c(N)ncnc32)[C@H](O)[C@@H]1O |  |

Reference: ChEMBL document CHEMBL1156943, “Toward the development of potent and selective bisubstrate inhibitors of protein arginine methyltransferases” (Bioorg Med Chem Lett, 2010)
